From ChEMBL document CHEMBL3751688, “Synthesis, in vitro antimycobacterial evaluation and docking studies of some new 5,6,7,8-tetrahydropyrido[4',3':4,5]thieno[2,3-d]pyrimidin-4(3H)-one schiff bases” (Bioorg Med Chem Lett, 2016)
Converted amounts (≈) assume the structure as drawn.

What was measured:
[1] = test system: Mycobacterium tuberculosis; test: Antibacterial activity against Mycobacterium tuberculosis; type: functional
Staphylococcus aureus = test: Antibacterial activity against Staphylococcus aureus MTCC 96 after 24 hrs by broth microdilution technique; type: functional; details: MTCC 96, 24 h
Bacillus subtilis = test: Antibacterial activity against Bacillus subtilis MTCC 441 after 24 hrs by broth microdilution technique; type: functional; details: MTCC 441, 24 h
Escherichia coli = test: Antibacterial activity against Escherichia coli MTCC 443 after 24 hrs by broth microdilution technique; type: functional; details: MTCC 443, 24 h
Klebsiella pneumoniae = test: Antibacterial activity against Klebsiella pneumoniae MTCC 109 after 24 hrs by broth microdilution technique; type: functional; details: MTCC 109, 24 h
[2] = test system: Mycobacterium tuberculosis; test: Antimycobacterial activity against Mycobacterium tuberculosis H37Rv at 113 uM after 3 days by luciferase reporter phage assay; type: functional; details: 72 h
[3] = test system: Mycobacterium tuberculosis; test: Antimycobacterial activity against Mycobacterium tuberculosis H37Rv at 224 uM after 3 days by luciferase reporter phage assay; type: functional; details: 72 h
[4] = test system: Mycobacterium tuberculosis; test: Antimycobacterial activity against Mycobacterium tuberculosis H37Rv at 455 uM after 3 days by luciferase reporter phage assay; type: functional; details: 72 h
[5] = test system: Mycobacterium tuberculosis; test: Antimycobacterial activity against Mycobacterium tuberculosis H37Rv after 14 days by broth microdilution method; type: functional; details: 336 h
[6] = test system: Mycobacterium tuberculosis; test: Antimycobacterial activity against Mycobacterium tuberculosis H37Rv after 21 days by broth microdilution method; type: functional; details: 504 h
Pantothenate synthetase = target: T1, Pantothenate synthetase (Mycobacterium tuberculosis, UniProt P9WIL5); test: Inhibition of Mycobacterium tuberculosis pantothenate synthetase
T1 sequence (P9WIL5 whole entry): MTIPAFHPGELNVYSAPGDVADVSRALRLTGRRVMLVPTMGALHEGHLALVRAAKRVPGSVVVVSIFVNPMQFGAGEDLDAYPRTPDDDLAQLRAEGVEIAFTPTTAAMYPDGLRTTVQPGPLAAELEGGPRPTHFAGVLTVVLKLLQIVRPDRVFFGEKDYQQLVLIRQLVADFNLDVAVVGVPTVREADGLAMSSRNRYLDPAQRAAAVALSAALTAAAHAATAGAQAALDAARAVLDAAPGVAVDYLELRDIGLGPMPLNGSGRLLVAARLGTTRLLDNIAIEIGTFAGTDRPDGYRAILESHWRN

[7] = test system: Mycobacterium tuberculosis; test: Antimycobacterial activity against Mycobacterium tuberculosis H37Rv at 117 uM after 3 days by luciferase reporter phage assay; type: functional; details: 72 h
[8] = test system: Mycobacterium tuberculosis; test: Antimycobacterial activity against Mycobacterium tuberculosis H37Rv at 235 uM after 3 days by luciferase reporter phage assay; type: functional; details: 72 h
[9] = test system: Mycobacterium tuberculosis; test: Antimycobacterial activity against Mycobacterium tuberculosis H37Rv at 470 uM after 3 days by luciferase reporter phage assay; type: functional; details: 72 h
[10] = test system: Mycobacterium tuberculosis; test: Antimycobacterial activity against Mycobacterium tuberculosis H37Rv at 111 uM after 3 days by luciferase reporter phage assay; type: functional; details: 72 h
[11] = test system: Mycobacterium tuberculosis; test: Antimycobacterial activity against Mycobacterium tuberculosis H37Rv at 223 uM after 3 days by luciferase reporter phage assay; type: functional; details: 72 h
[12] = test system: Mycobacterium tuberculosis; test: Antimycobacterial activity against Mycobacterium tuberculosis H37Rv at 446 uM after 3 days by luciferase reporter phage assay; type: functional; details: 72 h
[13] = test system: Mycobacterium tuberculosis; test: Antimycobacterial activity against Mycobacterium tuberculosis H37Rv at 116 uM after 3 days by luciferase reporter phage assay; type: functional; details: 72 h
[14] = test system: Mycobacterium tuberculosis; test: Antimycobacterial activity against Mycobacterium tuberculosis H37Rv at 232 uM after 3 days by luciferase reporter phage assay; type: functional; details: 72 h
[15] = test system: Mycobacterium tuberculosis; test: Antimycobacterial activity against Mycobacterium tuberculosis H37Rv at 465 uM after 3 days by luciferase reporter phage assay; type: functional; details: 72 h
[16] = test system: Mycobacterium tuberculosis; test: Antimycobacterial activity against Mycobacterium tuberculosis H37Rv at 123 uM after 3 days by luciferase reporter phage assay; type: functional; details: 72 h
[17] = test system: Mycobacterium tuberculosis; test: Antimycobacterial activity against Mycobacterium tuberculosis H37Rv at 246 uM after 3 days by luciferase reporter phage assay; type: functional; details: 72 h
[18] = test system: Mycobacterium tuberculosis; test: Antimycobacterial activity against Mycobacterium tuberculosis H37Rv at 492 uM after 3 days by luciferase reporter phage assay; type: functional; details: 72 h

| Compound | MIC (Staphylococcus aureus) [µM] | MIC (Bacillus subtilis) [µM] | MIC (Escherichia coli) [µM] | MIC (Klebsiella pneumoniae) [µM] | MIC [5] [µM] | MIC [6] [µM] | also measured |
| --- | --- | --- | --- | --- | --- | --- | --- |
| Cc1nc2ccccn2c1C(=O)N/N=C/c1ccc(C(F)(F)F)cc1 | – | – | – | – | – | – | MIC [1]: 9.01 µM (≈ 3.12 µg/mL) |
| Cc1nc2sc3c(c2c(=O)n1/N=C/c1ccc(C#N)cc1)CCN(Cc1ccccc1)C3 | 34 (≈ 14.9 µg/mL) | 34 (≈ 14.9 µg/mL) | 15 (≈ 6.59 µg/mL) | 70 (≈ 30.8 µg/mL) | 20 (≈ 8.79 µg/mL) | 20 (≈ 8.79 µg/mL) | inhibition at 113 µM [2]: 0%; inhibition at 224 µM [3]: 6.5%; inhibition at 455 µM [4]: 9.8% |
| Cc1nc2sc3c(c2c(=O)n1/N=C/c1ccccc1)CCN(Cc1ccccc1)C3 | 74 (≈ 30.7 µg/mL) | 74 (≈ 30.7 µg/mL) | 74 (≈ 30.7 µg/mL) | 149 (≈ 61.8 µg/mL) | – | – | – |
| O=c1c2c3c(sc2ncn1/N=C/c1ccccc1[N+](=O)[O-])CN(Cc1ccccc1)CC3 | 139 (≈ 61.9 µg/mL) | 139 (≈ 61.9 µg/mL) | 139 (≈ 61.9 µg/mL) | 139 (≈ 61.9 µg/mL) | – | – | – |
| NC(=O)c1c(NC(=O)c2ccc([N+](=O)[O-])s2)sc2c1CCN(Cc1ccccc1)C2 | – | – | – | – | – | – | IC50 (Pantothenate synthetase): 1130 nM |
| Cc1nc2sc3c(c2c(=O)n1/N=C/c1cccs1)CCN(Cc1ccccc1)C3 | 297 (≈ 125 µg/mL) | 297 (≈ 125 µg/mL) | 297 (≈ 125 µg/mL) | 297 (≈ 125 µg/mL) | – | – | – |
| O=c1c2c3c(sc2ncn1/N=C/c1ccc(O)cc1)CN(Cc1ccccc1)CC3 | 149 (≈ 62.1 µg/mL) | 149 (≈ 62.1 µg/mL) | 149 (≈ 62.1 µg/mL) | 149 (≈ 62.1 µg/mL) | – | – | – |
| O=c1c2c3c(sc2ncn1/N=C/c1ccc(F)cc1)CN(Cc1ccccc1)CC3 | 73 (≈ 30.6 µg/mL) | 73 (≈ 30.6 µg/mL) | 73 (≈ 30.6 µg/mL) | 147 (≈ 61.5 µg/mL) | – | – | – |
| Cc1nc2sc3c(c2c(=O)n1/N=C/c1ccccc1[N+](=O)[O-])CCN(Cc1ccccc1)C3 | 135 (≈ 62 µg/mL) | 135 (≈ 62 µg/mL) | 135 (≈ 62 µg/mL) | 135 (≈ 62 µg/mL) | – | – | – |
| N#Cc1ccc(/C=N/n2cnc3sc4c(c3c2=O)CCN(Cc2ccccc2)C4)cc1 | 35 (≈ 14.9 µg/mL) | 35 (≈ 14.9 µg/mL) | 16 (≈ 6.81 µg/mL) | 72 (≈ 30.6 µg/mL) | 9 (≈ 3.83 µg/mL) | 9 (≈ 3.83 µg/mL) | inhibition at 117 µM [7]: 0%; inhibition at 235 µM [8]: 9.7%; inhibition at 470 µM [9]: 69.9% |
| O=c1c2c3c(sc2ncn1/N=C/c1ccc(Cl)cc1)CN(Cc1ccccc1)CC3 | 34 (≈ 14.8 µg/mL) | 34 (≈ 14.8 µg/mL) | 16 (≈ 6.96 µg/mL) | 71 (≈ 30.9 µg/mL) | 20 (≈ 8.7 µg/mL) | 20 (≈ 8.7 µg/mL) | – |
| COc1cc(/C=N/n2c(C)nc3sc4c(c3c2=O)CCN(Cc2ccccc2)C4)cc(OC)c1OC | 248 (≈ 125 µg/mL) | 248 (≈ 125 µg/mL) | 248 (≈ 125 µg/mL) | 248 (≈ 125 µg/mL) | – | – | – |
| COc1ccc(/C=N/n2c(C)nc3sc4c(c3c2=O)CCN(Cc2ccccc2)C4)cc1 | 69 (≈ 30.7 µg/mL) | 33 (≈ 14.7 µg/mL) | 33 (≈ 14.7 µg/mL) | 69 (≈ 30.7 µg/mL) | – | – | – |
| O=c1c2c3c(sc2ncn1/N=C/c1ccccc1)CN(Cc1ccccc1)CC3 | 77 (≈ 30.8 µg/mL) | 77 (≈ 30.8 µg/mL) | 77 (≈ 30.8 µg/mL) | 155 (≈ 62.1 µg/mL) | – | – | – |
| Cc1nc2sc3c(c2c(=O)n1/N=C/c1ccc(O)cc1)CCN(Cc1ccccc1)C3 | 144 (≈ 62 µg/mL) | 144 (≈ 62 µg/mL) | 144 (≈ 62 µg/mL) | 144 (≈ 62 µg/mL) | – | – | – |
| Cc1nc2sc3c(c2c(=O)n1/N=C/c1ccc(Cl)cc1)CCN(Cc1ccccc1)C3 | 33 (≈ 14.8 µg/mL) | 33 (≈ 14.8 µg/mL) | 15 (≈ 6.73 µg/mL) | 69 (≈ 31 µg/mL) | 8 (≈ 3.59 µg/mL) | 8 (≈ 3.59 µg/mL) | inhibition at 111 µM [10]: 29.6%; inhibition at 223 µM [11]: 40.8%; inhibition at 446 µM [12]: 99.8% |
| COc1ccc(/C=N/n2cnc3sc4c(c3c2=O)CCN(Cc2ccccc2)C4)cc1 | 34 (≈ 14.6 µg/mL) | 34 (≈ 14.6 µg/mL) | 16 (≈ 6.89 µg/mL) | 72 (≈ 31 µg/mL) | 20 (≈ 8.61 µg/mL) | 20 (≈ 8.61 µg/mL) | inhibition at 116 µM [13]: 0%; inhibition at 232 µM [14]: 15%; inhibition at 465 µM [15]: 16.9% |
| Cc1nc2sc3c(c2c(=O)n1/N=C/c1ccc(F)cc1)CCN(Cc1ccccc1)C3 | 71 (≈ 30.7 µg/mL) | 71 (≈ 30.7 µg/mL) | 71 (≈ 30.7 µg/mL) | 71 (≈ 30.7 µg/mL) | – | – | – |
| Cc1nc2sc3c(c2c(=O)n1/N=C/c1ccc(Cl)cc1Cl)CCN(Cc1ccccc1)C3 | 64 (≈ 30.9 µg/mL) | 15 (≈ 7.25 µg/mL) | 64 (≈ 30.9 µg/mL) | 64 (≈ 30.9 µg/mL) | – | – | – |
| O=c1c2c3c(sc2ncn1/N=C/c1ccc(Cl)cc1Cl)CN(Cc1ccccc1)CC3 | 66 (≈ 31 µg/mL) | 32 (≈ 15 µg/mL) | 66 (≈ 31 µg/mL) | 66 (≈ 31 µg/mL) | – | – | – |
| Cc1nc2sc3c(c2c(=O)n1/N=C/c1ccco1)CCN(Cc1ccccc1)C3 | 309 (≈ 125 µg/mL) | 309 (≈ 125 µg/mL) | 309 (≈ 125 µg/mL) | 153 (≈ 61.9 µg/mL) | – | – | – |
| O=c1c2c3c(sc2ncn1/N=C/c1cccs1)CN(Cc1ccccc1)CC3 | 36 (≈ 14.6 µg/mL) | 150 (≈ 61 µg/mL) | 150 (≈ 61 µg/mL) | 150 (≈ 61 µg/mL) | 22 (≈ 8.94 µg/mL) | 22 (≈ 8.94 µg/mL) | inhibition at 123 µM [16]: 0%; inhibition at 246 µM [17]: 0%; inhibition at 492 µM [18]: 0% |
| COc1cc(/C=N/n2cnc3sc4c(c3c2=O)CCN(Cc2ccccc2)C4)cc(OC)c1OC | 255 (≈ 125 µg/mL) | 255 (≈ 125 µg/mL) | 255 (≈ 125 µg/mL) | 255 (≈ 125 µg/mL) | – | – | – |
| O=c1c2c3c(sc2ncn1/N=C/c1ccco1)CN(Cc1ccccc1)CC3 | 158 (≈ 61.7 µg/mL) | 158 (≈ 61.7 µg/mL) | 158 (≈ 61.7 µg/mL) | 158 (≈ 61.7 µg/mL) | – | – | – |
| CC[C@@H](CO)NCCN[C@@H](CC)CO [ETHAMBUTOL] | – | – | – | – | 4 (≈ 0.817 µg/mL) | 4 (≈ 0.817 µg/mL) | – |
| NNC(=O)c1ccncc1 [ISONIAZID] | – | – | – | – | 0.28 (≈ 0.0384 µg/mL) | 0.28 (≈ 0.0384 µg/mL) | – |
| CO[C@H]1/C=C/O[C@@]2(C)Oc3c(C)c(O)c4c(O)c(c(/C=N/N5CCN(C)CC5)c(O)c4c3C2=O)NC(=O)/C(C)=C\C=C\[C@H](C)[C@H](O)[C@@H](C)[C@@H](O)[C@@H](C)[C@H](OC(C)=O)[C@@H]1C [RIFAMPIN] | – | – | – | – | 0.09 (≈ 0.0741 µg/mL) | 0.09 (≈ 0.0741 µg/mL) | – |
| CN[C@@H]1[C@H](O[C@H]2[C@H](O[C@H]3[C@H](O)[C@@H](O)[C@H](N=C(N)N)[C@@H](O)[C@@H]3N=C(N)N)O[C@@H](C)[C@]2(O)C=O)O[C@@H](CO)[C@H](O)[C@H]1O [STREPTOMYCIN] | < 1 | < 1 | < 1 | < 1 | 2 (≈ 1.16 µg/mL) | 2 (≈ 1.16 µg/mL) | – |
